Source: patent US20130015204A1, “SINGLE-USE CONTAINERS AND USES THEREOF” (priority 2009, published 2013)
Entries after “also recorded” stand apart in the source; their conditions may differ. Where two headings read alike, the source gives them in different places.

Tests used:
[1] = Heat stability studies: HPLC peak area change after heating, hot water or hot coffee; assay type: physicochemical; settings: for Effect of dilution with hot water and coffee on vitamin concentration: dilution with hot water or hot coffee, 80° C. or 100° C.; for Effect of heating solutions on vitamin concentration: heating to either 80° C. or 100° C. for 15 minutes; for % Deviation: vs control; for Vitamin degradation, Water 80° C.: diluted with hot water 80° C.; for Vitamin degradation, Water 100° C.: diluted with hot water 100° C.; for Vitamin degradation, Heat 80° C.: solution heated 80° C.; for Vitamin degradation, Heat 100° C.: solution heated 100° C.
Description: Vitamins were divided into two groups, depending on their solubility. “High concentration” vitamins were sufficiently soluble to be detected by the. HPLC analysis after 1/250 dilution. “Low concentration” vitamins were not sufficiently soluble and could not be detected after 1/250 dilution and therefore a different procedure was adopted for these compounds as described below.
High concentration vitamin (B1, B3, B5, B6) solutions
Solutions were prepared immediately before use in duplicate, using four different methods, described below: a. Dilute 1 mL of each standard solution to 250 mL with Milli-Q water at room temperature (control sample) […]
b. […] Then take a 1 mL sample from each tube and dilute to 250 mL with Milli-Q water at room temperature. c. Dilute 1 mL of each solution to 250 mL with hot water (80° C. or 100° C.). Leave for 15 minutes, then take a sample and cool immediately to room temperature. d. Dilute 1 mL of each solution to 250 mL with hot coffee (80° C. or 100° C.). Leave for 15 minutes, then take a sample and cool immediately to room temperature.
Low Concentration Vitamin (B2, B7, B9, B12) Solutions
Standard solutions were freshly prepared with Milli-Q water as described above. The test solutions below were then immediately prepared in duplicate: a. Use undiluted (control sample)
HPLC conditions were as described above.
(§1) The percentage change in individual vitamin concentrations relative to the control sample was calculated as: 100×(Atest−Acontrol)/Acontrol, where Atest and Acontrol are peak area ratios (analyte/intemal standard) for the test and control solutions respectively.
All statistical analyses were performed with SPSS 16.

[2] = Long term storage stability studies: HPLC, solutions stored at RT and 4° C. for up to 4 months; settings: for Long term storage stability of vitamin solution: stored at RT or 4° C., 4 month period; for Time to achieve significant falls at 4° C.: aqueous solution stored at 4° C.; for Time to achieve significant falls at RT: aqueous solution stored at RT
Description: Heat was applied by different methods, including placing the solution in a test tube in a bath of hot water (80° C. or 100° C.) for 15 minutes, or by mixing a concentrated solution with hot water or hot coffee (80° C. or 100° C. for both) for an equivalent time. Long term stability studies were carried out by storing individual vitamin solutions at room temperature and at 4° C. for up to 4 months and sampling these solutions at various intervals. Degradation was assessed by the change in peak area of the HPLC peak specific to each particular compound.
Vitamin solutions were prepared as for the Heat Stability Studies.
Replicate aliquots of these solutions were placed in four 15 mL Falcon tubes. Two of these tubes were stored on a shelf at room temperature (RT) in the laboratory and two in the cold room (4° C.).
At 0, 0.5, 1, 1.5, 2, 3.5, and 4 months, samples were taken from each vial for
HPLC analysis. The high concentration vitamin samples (vitamins BI, B3, B5, and B6) were diluted to 1:250 with Milli-Q water before injection and the low concentration vitamin samples (vitamins B2, B7, B9, and B12) were injected undiluted.
Samples from each of the duplicate solutions described above were injected onto the HPLC in duplicate. HPLC conditions were as described above.
Duplicate injections of the two samples were made and the mean of the four results was reported.
as §1
For the heat stability studies, statistical analysis was performed by Students t-test. For the storage stability studies, statistical analysis was performed by univariate ANOVA (General Linear Model). All statistical analyses were performed with SPSS 16.

[3] = water; cited from earlier work
[4] = high concentration vitamin solution, matrix coffee: diluted 1/250 with hot coffee 80° C., 15 minutes
[5] = high concentration vitamin solution, matrix coffee: diluted 1/250 with hot coffee 100° C., 15 minutes
[6] = high concentration vitamin solution, matrix heated: tube in hot water 80° C., 15 minutes
[7] = high concentration vitamin solution, matrix heated: tube in hot water 100° C., 15 minutes
[8] = high concentration vitamin solution, matrix hot water: diluted 1/250 with hot water 80° C., 15 minutes
[9] = high concentration vitamin solution, matrix hot water: diluted 1/250 with hot water 100° C., 15 minutes
[10] = greatest percentage change over the 4 month testing period, † non-significant, * significant, ‡ transient at 2 weeks
[11] = storage at RT and 4° C. for up to 4 months
[12] = low concentration vitamin solution, undiluted, heated to 80° C., 15 minutes
[13] = low concentration vitamin solution, undiluted, heated to 100° C., 15 minutes
[14] = up to 4 months, — = no significant fall

| Molecule | Effect of dilution with hot water and coffee on vitamin concentration [1] | Effect of heating solutions on vitamin concentration [1] | % Deviation [1, 4] [%] | % Deviation [1, 5] [%] | % Deviation [1, 6] [%] | % Deviation [1, 7] [%] | % Deviation [1, 8] [%] | % Deviation [1, 9] [%] | Vitamin degradation, Storage 4° C. [2, 10] | Vitamin degradation, Storage RT [2, 10] | Comment (long term storage stability) [2, 11] | Long term storage stability of vitamin solution [2] | Aq. solubility [3] [µg/mL] | % Deviation [1, 12] [%] | % Deviation [1, 13] [%] | Time to achieve significant falls at 4° C. [2, 14] [weeks] | Vitamin degradation, Heat 80° C. ([1]; summary, 15 minutes) | Vitamin degradation, Heat 100° C. ([1]; summary, 15 minutes) | further results |
| --- | --- | --- | --- | --- | --- | --- | --- | --- | --- | --- | --- | --- | --- | --- | --- | --- | --- | --- | --- |
| Cc1ncc(C[n+]2csc(CCO)c2C)c(N)n1 [Vitamin B1, Thiamine] | unaffected | not affected | 0.46 | 0.58 | 0.33 | 0.22 | −0.04 | −0.26 | † −2.8% | † −2.4% | Stable for 4 months | stable; also recorded: no statistically significant degradation | 500000 | – | – | – | – | – | – |
| Cc1cc2nc3c(=O)[nH]c(=O)nc-3n(C[C@H](O)[C@H](O)[C@H](O)CO)c2cc1C [Vitamin B2, riboflavin] | – | not significantly affected | – | – | – | – | – | – | −33.6% * | −24.7% * | – | varying levels of degradation; also recorded: little further degradation; also recorded: Significant degradation | – | 1.5 | 2.85 | 2 | – | – | Time to achieve significant falls at RT [2, 14]: 2 weeks; Degradation after 2 weeks at 4° C. ([2]; storage at 4° C.): 33.6%; Comment: Falls sustained to ([2]; storage at RT and 4° C.): 4 months; Degradation after 2 weeks at RT ([2]; storage at RT): 24.7% |
| NC(=O)c1cccnc1 [Vitamin B3, niacinamide] | Statistically significant reductions | not affected | −3.72 | −3.62 | −0.24 | −0.86 | 0.33 | 0.4 | † −1.1% | † −1.8% | Stable for 4 months | stable; also recorded: no statistically significant degradation | – | – | – | – | †† (non-significant reductions in vitamin concentrations of <2% in response to heat treatment) | †† (non-significant reductions in vitamin concentrations of <2% in response to heat treatment) | Vitamin degradation, Water 80° C. ([1]; summary, 15 minutes): †† (non-significant reductions in vitamin concentrations of <2% in response to heat treatment); Vitamin degradation, Water 100° C. ([1]; summary, 15 minutes): †† (non-significant reductions in vitamin concentrations of <2% in response to heat treatment) |
| Cc1ncc(CO)c(CO)c1O.Cl [Vitamin B6, pyroxidine hydrochloride] | unaffected | not affected | −0.63 | −1.47 | 0.05 | −0.28 | 1.39 | 1.64 | – | – | – | – | – | – | – | – | – | – | Comment (long term storage stability) [2]: Stable for 4 months; Vitamin degradation, Storage 4° C. [2]: † −2.5%; Vitamin degradation, Storage RT [2]: † −1.5% |
| O=C(O)CCCC[C@@H]1SC[C@@H]2NC(=O)N[C@@H]21 [Vitamin B7, biotin] | – | not significantly affected | – | – | – | – | – | – | −27.4% ‡ | −15.9% ‡ | Stable for 4 months | varying levels of degradation; also recorded: no statistically significant degradation; also recorded: transient reductions | 220 | −0.47 | −1.89 | – | †† (non-significant reductions in vitamin concentrations of <2% in response to heat treatment) | †† (non-significant reductions in vitamin concentrations of <2% in response to heat treatment) | – |
| Nc1nc2ncc(CNc3ccc(C(=O)N[C@@H](CCC(=O)O)C(=O)O)cc3)nc2c(=O)[nH]1 [Vitamin B9, folic acid] | – | Statistically significant reductions | – | – | – | – | – | – | −13.7% * | −100.0% * | At RT, undetectable | varying levels of degradation; also recorded: Significant degradation | 1.6 | −1.92 | −2.26 | 2 | – | – | Time to achieve significant falls at RT [2, 14]: 2 weeks; Comment: At 4° C., significant change only at ([2]; storage at 4° C.): 2 weeks.; Further fall in levels at 1 month ([2]; storage at 4° C., 1 month, beyond the fall at 2 weeks): 5.7%; Degradation after 2 weeks at 4° C. ([2]; storage at 4° C.): 8.0%; Maximum degradation on storage at 4° C. ([2]; storage at 4° C., 4 months): 13.7%; Degradation after 2 weeks at RT ([2]; storage at RT): 10.0%; Level on storage at RT after the 2 week sample ([2]; storage at RT, sampling times from 1 month to 4 months): undetectable; also recorded: complete elimination |
| calcium (+)-pantothenate [Vitamin B5] | unaffected | Statistically significant reductions | 1.78 | 0.31 | −2.78 | −2.27 | −0.77 | −1.15 | −3.9% * | −3.3% * | – | varying levels of degradation; also recorded: significant degradation | – | – | – | 2 | – | – | Vitamin degradation, Coffee 80° C. ([1]; summary, diluted with hot coffee 80° C., 15 minutes): †† (non-significant reductions in vitamin concentrations of <2% in response to heat treatment); Vitamin degradation, Coffee 100° C. ([1]; summary, diluted with hot coffee 100° C., 15 minutes): †† (non-significant reductions in vitamin concentrations of <2% in response to heat treatment); Vitamin degradation, Water 80° C. ([1]; summary, 15 minutes): †† (non-significant reductions in vitamin concentrations of <2% in response to heat treatment); Vitamin degradation, Water 100° C. ([1]; summary, 15 minutes): †† (non-significant reductions in vitamin concentrations of <2% in response to heat treatment); Time to achieve significant falls at RT ([2]; up to 4 months): 1.5 months; Comment: Falls sustained to ([2]; storage at RT and 4° C.): 4 months; Comment: size of falls at all times ([2]; storage at RT and 4° C., up to 4 months): < 5%; Degradation at any time for either temperature ([2]; storage at RT or 4° C., entire 4 month test period): less than 4% |
| cyanocobalamin [Vitamin B12] | – | not significantly affected | – | – | – | – | – | – | † −1.4% | † −1.2% | – | stable; also recorded: no statistically significant degradation | 12.5 | −0.14 | −0.18 | – | †† (non-significant reductions in vitamin concentrations of <2% in response to heat treatment) | †† (non-significant reductions in vitamin concentrations of <2% in response to heat treatment) | – |
